Molecules are shown by their SMILES.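 How tested: cells in 96-well plates exposed to compound for 48 hours at five concentrations. At the GI50, growth is halved. TGI is the concentration that stops growth completely.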

Some test systems named below: SF-539 CNS; NCI-H226 lung; SNB-19 CNS; SK-OV-3 ovarian; COLO 205 colon; DMS 273 small cell lung; DU-145 prostate; NCI-H522 lung; HS 578T breast.
What all share (experiment): NCI tumour cell line growth inhibition, 48 h

On to `CN(C)CCNC(=O)c1cccc2ccc(-c3cccnc3)nc12`, for which the TGI in the assay with SF-539 CNS came out at 23.7 µM; in the assay on NCI-H226 lung it was 22.2 µM; in the assay on SNB-19 CNS, 22.6 µM; in the assay with SK-OV-3 ovarian, 36.9 µM; with COLO 205 colon, 13.6 µM; in the assay on DMS 273 small cell lung, 13.1 µM.

Consider `COc1ccc2c(O)c(/C=C3\N=Nc4ncccc43)oc2c1C[C@H]1CCNC[C@H]1F`, for which the GI50 with SF-539 CNS is 0.252 µM; in the assay with NCI-H226 lung it was 0.16 µM; with DU-145 prostate it was 0.753 µM; with SNB-19 CNS it was 0.419 µM; in the assay on NCI-H522 lung it was 0.206 µM; in the assay on SK-OV-3 ovarian it was 1.57 µM. Besides, the GI50 was 0.24 µM with COLO 205 colon and 0.16 µM with HS 578T breast. Also, the TGI with SF-539 CNS was determined as 0.952 µM; with NCI-H226 lung, 5.29 µM; in the assay with DU-145 prostate, 12 µM; in the assay with SNB-19 CNS, 11.6 µM; with NCI-H522 lung it was 2.23 µM; in the assay on SK-OV-3 ovarian, 9.05 µM. For the same compound, the TGI in the assay on COLO 205 colon was found to be 0.806 µM; in the assay on HS 578T breast, 5.34 µM.

In the case of `COc1ccc(N2CCN(CN3CCN(c4ccc(OC)cc4)C3)C2)cc1`, the GI50 in the assay with SF-539 CNS was greater than 100 µM; with NCI-H226 lung it was greater than 100 µM; with DU-145 prostate, 79.7 µM; in the assay on SNB-19 CNS, greater than 100 µM; in the assay with NCI-H522 lung it was greater than 100 µM; in the assay on SK-OV-3 ovarian it was greater than 100 µM. For the same compound, the GI50 in the assay on COLO 205 colon and in the assay on HS 578T breast was greater than 100 µM each time. For the same compound, the TGI with SF-539 CNS, in the assay with NCI-H226 lung, in the assay on DU-145 prostate, in the assay on SNB-19 CNS, in the assay on NCI-H522 lung and with SK-OV-3 ovarian was greater than 100 µM each time. Further, the TGI with COLO 205 colon and with HS 578T breast was greater than 100 µM each time.

For the compound `C=CC(=O)NCCOc1cccc(Nc2cc(NCCCNC(=O)C3CCC3)c(Br)cn2)c1`, the GI50 in the assay with SF-539 CNS is 0.568 µM; in the assay with NCI-H226 lung, 0.613 µM; in the assay on DU-145 prostate, 1.21 µM; with SNB-19 CNS it was 1.08 µM; with NCI-H522 lung it was 0.819 µM; in the assay with SK-OV-3 ovarian, 1 µM. The GI50 with COLO 205 colon is 0.632 µM; in the assay with HS 578T breast, 0.567 µM. Further, the TGI in the assay with SF-539 CNS was 2.21 µM; in the assay on NCI-H226 lung, greater than 25 µM; in the assay on DU-145 prostate, greater than 25 µM; in the assay on SNB-19 CNS, 14 µM; with NCI-H522 lung, 4.96 µM; in the assay on SK-OV-3 ovarian, 4.06 µM. Further, the TGI is 2.1 µM with COLO 205 colon and 1.7 µM in the assay on HS 578T breast.

On to `O=c1c2[nH]c3ccccc3c2nc2n1CCS2`, for which the GI50 in the assay on SF-539 CNS was 85 µM; in the assay with NCI-H226 lung, greater than 100 µM; in the assay on DU-145 prostate, greater than 100 µM; with SNB-19 CNS, greater than 100 µM; in the assay with NCI-H522 lung it was greater than 100 µM; with SK-OV-3 ovarian it was greater than 100 µM. For the same compound, the GI50 in the assay on COLO 205 colon was greater than 100 µM; with HS 578T breast, 26.9 µM. Further, the TGI in the assay with SF-539 CNS, with NCI-H226 lung, with DU-145 prostate, in the assay on SNB-19 CNS, with NCI-H522 lung and with SK-OV-3 ovarian was greater than 100 µM throughout. The TGI in the assay on COLO 205 colon and in the assay on HS 578T breast was greater than 100 µM throughout.

As to `O=C1c2ccc3c4c(ccc(c24)C(=O)N1CCCNCc1ccccc1)C(=O)N(CCCNCc1ccccc1)C3=O`, the GI50 with SF-539 CNS was 0.194 µM; in the assay with NCI-H226 lung, 0.694 µM; in the assay with DU-145 prostate it was 0.156 µM; in the assay with SNB-19 CNS it was 0.13 µM; in the assay with NCI-H522 lung it was 0.142 µM; in the assay on SK-OV-3 ovarian, 0.285 µM. Besides, the GI50 is 0.113 µM in the assay with COLO 205 colon and 0.531 µM in the assay with HS 578T breast. Moreover, the TGI in the assay on SF-539 CNS amounted to 0.45 µM; in the assay with NCI-H226 lung it was 2.25 µM; with DU-145 prostate it was 0.297 µM; in the assay with SNB-19 CNS, 0.314 µM; in the assay on NCI-H522 lung, 0.303 µM; in the assay on SK-OV-3 ovarian it was 0.82 µM. Also, the results for the TGI with COLO 205 colon and in the assay on HS 578T breast were 0.24 µM and 3.24 µM, respectively.

Turning to `CCCCCCCCCCCCOC1C(CNCC2OC3OC(C)(C)OC3C2NC(=O)Nc2ccc(C(F)(F)F)cc2)OC2OC(C)(C)OC21` (centres undefined), the GI50 in the assay with SF-539 CNS was 7.09 µM; in the assay with NCI-H226 lung, 7.59 µM; with DU-145 prostate it was 5.03 µM; in the assay with SNB-19 CNS it was 9.07 µM; with NCI-H522 lung it was 3.96 µM; in the assay with SK-OV-3 ovarian, 9.06 µM. Also, the figures for the GI50 in the assay with COLO 205 colon and in the assay with HS 578T breast were 3.26 µM and 5.39 µM, respectively. Moreover, the TGI in the assay on SF-539 CNS turned out to be 13.9 µM; in the assay on NCI-H226 lung it was 16.4 µM; in the assay with DU-145 prostate it was 11.9 µM; with SNB-19 CNS it was 18 µM; in the assay on NCI-H522 lung, 9.21 µM; in the assay on SK-OV-3 ovarian, 17.2 µM. For the same compound, the TGI is 7.32 µM with COLO 205 colon and 14.1 µM with HS 578T breast.

`Cc1ccc(Nc2[nH]c(C(=O)c3ccc(Cl)cc3)c(N)c2C(=S)Nc2ccccc2)nc1`: the GI50 is 19.9 µM with SF-539 CNS; 26 µM with NCI-H226 lung; 31.2 µM in the assay with DU-145 prostate; 39.4 µM in the assay with SNB-19 CNS; 24 µM with NCI-H522 lung; 52.3 µM with SK-OV-3 ovarian. Moreover, the GI50 in the assay with COLO 205 colon was 31.9 µM; with HS 578T breast, 21.8 µM. Moreover, the TGI in the assay on SF-539 CNS is 44.8 µM; with NCI-H226 lung, 91.3 µM; in the assay with DU-145 prostate, greater than 100 µM; in the assay on SNB-19 CNS it was greater than 100 µM; with NCI-H522 lung it was 73.2 µM; in the assay with SK-OV-3 ovarian it was greater than 100 µM. Moreover, the TGI in the assay on COLO 205 colon is greater than 100 µM; in the assay on HS 578T breast it was 76.2 µM.

Turning to `CC(C)(C)CC(C)(C)N(CSc1ccc(Cl)cc1)CSc1ccc(Cl)cc1`, the GI50 with SF-539 CNS is 1.23 µM; in the assay on NCI-H226 lung, 0.836 µM; in the assay on DU-145 prostate, 2.25 µM; with SNB-19 CNS, 2.14 µM; in the assay on NCI-H522 lung, 1.65 µM; in the assay with SK-OV-3 ovarian, 2.68 µM. Also, the values for the GI50 with COLO 205 colon and in the assay on HS 578T breast were 2.15 µM and 1.72 µM, respectively. The TGI is 2.56 µM in the assay on SF-539 CNS; 2.67 µM in the assay on NCI-H226 lung; 11.2 µM with DU-145 prostate; 19.9 µM in the assay with SNB-19 CNS; 3.08 µM with NCI-H522 lung; 12.4 µM with SK-OV-3 ovarian. For the same compound, the results for the TGI with COLO 205 colon and in the assay on HS 578T breast were 4.19 µM and greater than 100 µM, respectively.

Source of the values: PubChem BioAssay (NCI).
